A short description of data set [1]: Evaluation of OGP(10-14) toxicity after 15 days of subcutaneous administration. Format: in vivo, mice. The following applies: 10 nmol/mouse s.c., versus placebo-treated controls. As for the experimental part: Fifty-five mice were evaluated for possible OGP(10-14)-related toxicity after 15 days of subcutaneous administration, at the dose of 10 nmol/mouse, and results were compared to those obtained in 30 placebo-treated controls.

For data set [2], the system named is white blood cells, monocytes, immature cells. In words: Total and differential blood cell counts after cyclophosphamide (CFA) chemoablation. The format is in vivo, mice. The following applies: CFA-induced aplasia. As for the experimental part:
FIGS. 2A-C—OGP(10-14) stimulates blood cell counts in dose and time dependent manner in mice undergoing chemoablation of hematopoietic tissues Male ICR mice weighing 25 gm each were subjected to chemoablation using cyclophosphamide (CFA), 5 mg/mouse, injected intraperitoneally on days 0 and 1, one injection each day. OGP(10-14) was dissolved in “sterile water for injection” and 0.1 ml of the indicated doses or water only (vehicle) was administered subcutaneously in the nape daily from day −7 to day −1 and from day +2 to day +8. Data are mean±SD obtained in 20 animals per condition. *: significant over CFA+vehicle, p<0.05; **: significant over 1 nmol OGP(10-14) group, p<0.05.
In this set of experiments bone marrow ablation was induced by an intraperitoneal injection of cyclophophamide (CFA, SIGMA, 5 mg/mouse in 150 (1 sterile PBS) for two consecutive days (designated “day 0” and “day 1”. This protocol has been demonstarted to induce severe, reversible leucopoena with L. D. <30 [Spangrude, G. J. et al, Science, 241:58 (1988)]. The lowest bone marrow cell counts were recorded six days after the first injection. […]

Data set [3] deals with CFU-GM, CFU-GEMM and BFU-E. In words: Ex vivo progenitor cell (colony forming) assays on bone marrow of treated chemoablated mice. The format is in vivo. The following applies: bone marrow of CFA-ablated mice, 10 nmol/day s.c. As for the experimental part:
Male ICR mice weighing 25 gm each were subjected to chemoablation using cyclophosphamide (CFA), 5 mg/mouse, injected intraperitoneally on days 0 and 1, one injection each day. OGP(10-14) was dissolved in “sterile water for injection” at 100 nmol/ml concentration and 0.1 ml of this solution or water only (vehicle) was administered subcutaneously in the nape daily for the indicated period(s). Bone marrow was harvested on day 9 and analyzed for colony forming units. Data are meam±SD obtained in 10 animals per condition.
To evaluate different dosing regimens of OGP(10-14), chemoablated mice were subjected to daily treatment with OGP(10-14), as outlined in FIG. 4. The mice were sacrificed on day +15, the femoral bone marrow was flushed and single cell suspensions (prepared as above) were subjected to ex vivo progenitor cell (colony forming) assays. The OGP(10-14) effect on the formation of CFU-GM, CFU-GEMM and BFU-E was compared to that of G-CSF (FIG. 4).
Bone marrow cells were recovered on day +10 after injection of CFA from all groups. Cells were diluted to 2×10^6/ml in Iscove's Modified Dulbecco Medium(IMFM) with 2% FBS and added to methylcellulose medium according to the manufacturer's recommendations (MethoCult, StemCell Technologies Inc., Vancouver, Canada). 2×10^4 cells were plated in each test. Both M3434 (for murine GM-CFU, and GEMM-CFU) and M3334 for (murine BFU-E assay) were used. M3434 was supplemented with recombinant murine interleukine-3 (rmIL-3, 10 ng/ml), recombinant human interleukine-6 (rhIL-6, 10 ng/ml), recombinant murine stem cell factor (rmSCF, 50 ng/ml) and recombinant human erythropoietin (rhEpo, 3 U/ml). […] the only factor included was Epo. Duplicate tests for each mouse were blindly examined after 14 days of incubation according to the protocol procedures.

Setting [4] is: OGP(10-14) effect only where treatment began 7 days before chemoablation.

Ends that are not written are not given here.

For YGFGG [OGP(10-14), Tyr-Gly-Phe-Gly-Gly], in data set [1], the “haematological parameters: number of WBC, RBC, PLT, Hb level” value is listed as “did not induce any significant modifications”; the “survival, behaviour, body weight gain and gross examination” value was “No differences were found”. For the same molecule, the “toxicity at the employed doses” value in data set [2] is listed as “without any valuable toxicity”.

B1: G-CSF: granulocyte colony-stimulating factor, positive reference (protein, UniProt P09919 31-207, looked up)
Granulocyte …: TPLGPASSLPQSFLLKCLEQVRKIQGDGAALQEKLVSECATYKLCHPEELVLLGHSLGIPWAPLSSCPSQALQLAGCLSQLHSGLFLYQGLLQALEGISPELGPTLDTLQLDVADFATTIWQQMEELGMAPALQPTQGAMPAFASAFQRRAGGVLVASHLQSFLEVSYRVLRHLAQP
For B1, the CFU-GM result in data set [3] is recorded as “had an effect”. Further, in data set [3] (setting [4]), the BFU-E result was “effect only on the CFU-GM” and the CFU-GEMM result is “effect only on the CFU-GM”.

The record behind these values is patent US20050004037A1, “Osteogenic growth oligopeptides as stimulants of hematopoiesis” (Yissum Research Development Company of the Hebrew …, priority 2001, published 2005).
